# In ChEMBL document CHEMBL5550184, “Structure-activity relationships of middle-size cyclic peptides, KRAS inhibitors derived from an mRNA display” (Bioorg Med Chem, 2024):
# Starred links: 1 amine or outer side, 2 acyl side, 3 side chain; linkers in the order of their positions; H or OH if unused. Positions of bridges follow the written chain, without caps; N, C: chain ends. Non-standard residues stand in square brackets, D forms with d. Residues, ends and D or L forms follow the SMILES beside them. *: point of attachment. hPhe(3-Cl-4-CF3) = N[C@@H](CCc1ccc(C(F)(F)F)c(Cl)c1)C(=O)O; X2 = CN([C@@H](CC(=O)[*:2])C(=O)n1cccc1)[*:1]; NMePhe(4-Cl) = CN[C@@H](Cc1ccc(Cl)cc1)C(=O)O; Phe(3-Cl) = N[C@@H](Cc1cccc(Cl)c1)C(=O)O; NMeGly(cPent) = CN[C@H](C(=O)O)C1CCCC1; NMeGly(cBu) = CN[C@H](C(=O)O)C1CCC1; NMeCha = CN[C@@H](CC1CCCCC1)C(=O)O; NMeGly(cPr) = CN[C@H](C(=O)O)C1CC1; NEtLeu = CCN[C@@H](CC(C)C)C(=O)O; NMeChg = CN[C@H](C(=O)O)C1CCCCC1; NMeF = CN[C@@H](Cc1ccccc1)C(=O)O; NMeI = CC[C@H](C)[C@H](NC)C(=O)O; NMeT = CN[C@H](C(=O)O)[C@@H](C)O; NMeD = CN[C@@H](CC(=O)O)C(=O)O; NMeL = CN[C@@H](CC(C)C)C(=O)O; NMehSer = CN[C@@H](CCO)C(=O)O; NMeAc5c = CNC1(C(=O)O)CCCC1; NMeNva = CCC[C@H](NC)C(=O)O; NMeV = CN[C@H](C(=O)O)C(C)C; Azetidin(1-yl) = C1CN(*)C1; NMeA = CN[C@@H](C)C(=O)O; Piperidide = C1CCN(*)CC1; Ac5c = NC1(C(=O)O)CCCC1; Aze = O=C(O)[C@@H]1CCN1; Sar = CNCC(=O)O
# Legend:
# [1] = molecular target: GTPase KRas (Homo sapiens, UniProt P01116, G12D); assay: Binding affinity to biotinylated KRAS G12D mutant (unknown origin) incubated for 120 mins by SPR analysis
# [2] = Apparent permeability in human Caco-2 cells incubated for 180 mins by LC-MS/MS method; format: ADME, cell-based
# [3] = tested on: ASPC1; assay: Cytotoxicity against human AsPC1 cells assessed as reduction in cell viability incubated for 7 days by CellTiterGlo Luminescent Cell Viability Assay; format: functional, cell-based; details: ASPC1, 168 h
# [4] = Inhibition of biotin-tagged KRAS G12D mutant (unknown origin) to recombinant His-tagged SOS1 (unknown origin) protein-protein interaction incubated for 120 mins by AlphaLISA method; design: species or system Homo sapiens
# [5] = tested on: GTPase KRas (Homo sapiens), P01116 [G12D]; assay: Binding affinity to biotinylated KRAS G12D mutant (unknown origin) assessed as Kon incubated for 120 mins by SPR analysis
# [6] = tested on: GTPase KRas (Homo sapiens), P01116 [G12D]; assay: Binding affinity to biotinylated KRAS G12D mutant (unknown origin) assessed as Koff incubated for 120 mins by SPR analysis
# GTPase KRas, sequence (P01116 whole entry G12D): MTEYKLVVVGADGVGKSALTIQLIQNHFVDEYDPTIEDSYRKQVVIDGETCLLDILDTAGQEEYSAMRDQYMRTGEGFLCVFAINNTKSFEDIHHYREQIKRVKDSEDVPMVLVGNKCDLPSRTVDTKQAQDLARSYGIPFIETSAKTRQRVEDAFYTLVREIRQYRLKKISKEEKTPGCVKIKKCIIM
# GTPase KRas (Homo sapiens), P01116 [G12D], sequence (P01116 whole entry G12D, looked up): as the sequence (P01116 whole entry G12D) above
Kd [1],Papp at 3 h [2],IC50 [4],K [5],K [6],SMILES,IC50 [3]
1.1 nM,0.29 ×10⁻⁶ cm/s,< 2 nM,2.1 10^5/Ms,2.3 10^-4/s,CC[C@H](C)[C@@H]1NC(=O)[C@H](CC(C)C)N(CC)C(=O)C[C@@H](C(=O)N2CCCCC2)N(C)C(=O)[C@H](C2CCCCC2)N(C)C(=O)C2(CCCC2)NC(=O)[C@@H]2CCCN2C(=O)[C@H](CCc2ccc(C(F)(F)F)c(Cl)c2)NC(=O)CN(C)C(=O)[C@H](CC2CCCCC2)N(C)C(=O)CN(C)C(=O)CN(C)C1=O ([NEtLeu]I[Sar][Sar][NMeCha][Sar][hPhe(3-Cl-4-CF3)]P[Ac5c][NMeChg][NMeD]-Piperidide; lactam N-11),73 nM
0.14 nM,0.56 ×10⁻⁶ cm/s,< 2 nM,1.2 10^6/Ms,1.7 10^-4/s,CC[C@H](C)[C@@H]1NC(=O)[C@H](C)N(C)C(=O)C[C@@H](C(=O)N2CCCCC2)N(C)C(=O)[C@H](C2CCCCC2)N(C)C(=O)C2(CCCC2)NC(=O)[C@@H]2CCCN2C(=O)[C@H](CCc2ccc(C(F)(F)F)c(Cl)c2)NC(=O)CN(C)C(=O)[C@H](CC2CCCCC2)N(C)C(=O)CN(C)C(=O)CN(C)C1=O ([NMeA]I[Sar][Sar][NMeCha][Sar][hPhe(3-Cl-4-CF3)]P[Ac5c][NMeChg][NMeD]-Piperidide; lactam N-11),91 nM
0.64 nM,0.62 ×10⁻⁶ cm/s,< 2 nM,3.8 10^5/Ms,2.4 10^-4/s,CC[C@H](C)[C@@H]1NC(=O)C2(CCCC2)N(C)C(=O)C[C@@H](C(=O)N2CCCCC2)N(C)C(=O)[C@H](C2CCCCC2)N(C)C(=O)C2(CCCC2)NC(=O)[C@@H]2CCCN2C(=O)[C@H](CCc2ccc(C(F)(F)F)c(Cl)c2)NC(=O)CN(C)C(=O)[C@H](CC2CCCCC2)N(C)C(=O)CN(C)C(=O)CN(C)C1=O ([NMeAc5c]I[Sar][Sar][NMeCha][Sar][hPhe(3-Cl-4-CF3)]P[Ac5c][NMeChg][NMeD]-Piperidide; lactam N-11),65 nM
2.5 nM,0.2 ×10⁻⁶ cm/s,< 2 nM,1 10^5/Ms,2.6 10^-4/s,CC[C@H](C)[C@@H]1NC(=O)[C@H](CC2CCCCC2)N(C)C(=O)C[C@@H](C(=O)N2CCCCC2)N(C)C(=O)[C@H](C2CCCCC2)N(C)C(=O)C2(CCCC2)NC(=O)[C@@H]2CCCN2C(=O)[C@H](CCc2ccc(C(F)(F)F)c(Cl)c2)NC(=O)CN(C)C(=O)[C@H](CC2CCCCC2)N(C)C(=O)CN(C)C(=O)CN(C)C1=O ([NMeCha]I[Sar][Sar][NMeCha][Sar][hPhe(3-Cl-4-CF3)]P[Ac5c][NMeChg][NMeD]-Piperidide; lactam N-11),210 nM
,0.91 ×10⁻⁶ cm/s,2.5 nM,,,CC[C@H](C)[C@@H]1NC(=O)[C@H](CC(C)C)N(C)C(=O)C[C@@H](C(=O)N2CCCCC2)N(C)C(=O)[C@H](C2CCC2)N(C)C(=O)C2(CCCC2)NC(=O)[C@@H]2CCCN2C(=O)[C@H](CCc2ccc(C(F)(F)F)c(Cl)c2)NC(=O)CN(C)C(=O)[C@H](CC2CCCCC2)N(C)C(=O)[C@@H]2CCN2C(=O)[C@H](C)N(C)C1=O ([NMeL]I[NMeA][Aze][NMeCha][Sar][hPhe(3-Cl-4-CF3)]P[Ac5c][NMeGly(cBu)][NMeD]-Piperidide; lactam N-11),170 nM
0.16 nM,2.61 ×10⁻⁶ cm/s,< 2 nM,,,CC[C@H](C)[C@@H]1NC(=O)[C@H](CC(C)C)N(C)C(=O)C[C@@H](C(=O)N(C)C)N(C)C(=O)[C@H](C2CCCC2)N(C)C(=O)C2(CCCC2)NC(=O)[C@@H]2CCCN2C(=O)[C@H](CCc2ccc(C(F)(F)F)c(Cl)c2)NC(=O)CN(C)C(=O)[C@H](CC2CCCCC2)N(C)C(=O)[C@@H]2CCN2C(=O)[C@H](C)N(C)C1=O ([NMeL]I[NMeA][Aze][NMeCha][Sar][hPhe(3-Cl-4-CF3)]P[Ac5c][NMeGly(cPent)][NMeD]-NMe2; lactam N-11),5.5 nM
0.19 nM,2.66 ×10⁻⁶ cm/s,< 2 nM,,,CC[C@H](C)[C@@H]1NC(=O)[C@H](CC(C)C)N(C)C(=O)C[C@@H](C(=O)N2CCC2)N(C)C(=O)[C@H](C2CCCC2)N(C)C(=O)C2(CCCC2)NC(=O)[C@@H]2CCCN2C(=O)[C@H](CCc2ccc(C(F)(F)F)c(Cl)c2)NC(=O)CN(C)C(=O)[C@H](CC2CCCCC2)N(C)C(=O)[C@@H]2CCN2C(=O)[C@H](C)N(C)C1=O ([NMeL]I[NMeA][Aze][NMeCha][Sar][hPhe(3-Cl-4-CF3)]P[Ac5c][NMeGly(cPent)][NMeD]-{Azetidin(1-yl)}; lactam N-11),13 nM
,1.36 ×10⁻⁶ cm/s,50 nM,,,CC[C@H](C)[C@@H]1NC(=O)[C@H](CC(C)C)N(C)C(=O)C[C@@H](C(=O)N2CCCCC2)N(C)C(=O)[C@H](C2CC2)N(C)C(=O)C2(CCCC2)NC(=O)[C@@H]2CCCN2C(=O)[C@H](CCc2ccc(C(F)(F)F)c(Cl)c2)NC(=O)CN(C)C(=O)[C@H](CC2CCCCC2)N(C)C(=O)[C@@H]2CCN2C(=O)[C@H](C)N(C)C1=O ([NMeL]I[NMeA][Aze][NMeCha][Sar][hPhe(3-Cl-4-CF3)]P[Ac5c][NMeGly(cPr)][NMeD]-Piperidide; lactam N-11),1100 nM
,0.75 ×10⁻⁶ cm/s,2.8 nM,,,CC[C@H](C)[C@@H]1NC(=O)[C@H](CC(C)C)N(C)C(=O)C[C@@H](C(=O)N2CCCCC2)N(C)C(=O)[C@H]([C@@H](C)CC)N(C)C(=O)C2(CCCC2)NC(=O)[C@@H]2CCCN2C(=O)[C@H](CCc2ccc(C(F)(F)F)c(Cl)c2)NC(=O)CN(C)C(=O)[C@H](CC2CCCCC2)N(C)C(=O)[C@@H]2CCN2C(=O)[C@H](C)N(C)C1=O ([NMeL]I[NMeA][Aze][NMeCha][Sar][hPhe(3-Cl-4-CF3)]P[Ac5c][NMeI][NMeD]-Piperidide; lactam N-11),48 nM
,1.3 ×10⁻⁶ cm/s,4.1 nM,,,CC[C@H](C)[C@@H]1NC(=O)[C@H](CC(C)C)N(C)C(=O)C[C@@H](C(=O)N2CCCCC2)N(C)C(=O)[C@H](C(C)C)N(C)C(=O)C2(CCCC2)NC(=O)[C@@H]2CCCN2C(=O)[C@H](CCc2ccc(C(F)(F)F)c(Cl)c2)NC(=O)CN(C)C(=O)[C@H](CC2CCCCC2)N(C)C(=O)[C@@H]2CCN2C(=O)[C@H](C)N(C)C1=O ([NMeL]I[NMeA][Aze][NMeCha][Sar][hPhe(3-Cl-4-CF3)]P[Ac5c][NMeV][NMeD]-Piperidide; lactam N-11),110 nM
0.32 nM,0.71 ×10⁻⁶ cm/s,< 2 nM,7.8 10^5/Ms,2.5 10^-4/s,CC[C@H](C)[C@@H]1NC(=O)[C@H](CC(C)C)N(C)C(=O)C[C@@H](C(=O)N2CCCCC2)N(C)C(=O)[C@H](C2CCCCC2)N(C)C(=O)C2(CCCC2)NC(=O)[C@@H]2CCCN2C(=O)[C@H](CCc2ccc(C(F)(F)F)c(Cl)c2)NC(=O)CN(C)C(=O)[C@H](CC2CCCCC2)N(C)C(=O)CN(C)C(=O)CN(C)C1=O ([NMeL]I[Sar][Sar][NMeCha][Sar][hPhe(3-Cl-4-CF3)]P[Ac5c][NMeChg][NMeD]-Piperidide; lactam N-11),40 nM
,1.12 ×10⁻⁶ cm/s,6 nM,,,CC[C@H](C)[C@@H]1NC(=O)[C@H](CC(C)C)N(C)C(=O)C[C@@H](C(=O)N2CCCCC2)N(C)C(=O)[C@H](C(C)C)N(C)C(=O)C2(CCCC2)NC(=O)[C@@H]2CCCN2C(=O)[C@H](CCc2ccc(C(F)(F)F)c(Cl)c2)NC(=O)CN(C)C(=O)[C@H](CC2CCCCC2)N(C)C(=O)CN(C)C(=O)CN(C)C1=O ([NMeL]I[Sar][Sar][NMeCha][Sar][hPhe(3-Cl-4-CF3)]P[Ac5c][NMeV][NMeD]-Piperidide; lactam N-11),120 nM
0.75 nM,0.85 ×10⁻⁶ cm/s,< 2 nM,3.1 10^5/Ms,2.3 10^-4/s,CCC[C@H]1C(=O)N[C@@H]([C@@H](C)CC)C(=O)N(C)CC(=O)N(C)CC(=O)N(C)[C@@H](CC2CCCCC2)C(=O)N(C)CC(=O)N[C@@H](CCc2ccc(C(F)(F)F)c(Cl)c2)C(=O)N2CCC[C@H]2C(=O)NC2(CCCC2)C(=O)N(C)[C@@H](C2CCCCC2)C(=O)N(C)[C@H](C(=O)N2CCCCC2)CC(=O)N1C ([NMeNva]I[Sar][Sar][NMeCha][Sar][hPhe(3-Cl-4-CF3)]P[Ac5c][NMeChg][NMeD]-Piperidide; lactam N-11),49 nM
0.23 nM,0.15 ×10⁻⁶ cm/s,< 2 nM,1.2 10^6/Ms,2.7 10^-4/s,CC[C@H](C)[C@@H]1NC(=O)[C@H]([C@@H](C)O)N(C)C(=O)C[C@@H](C(=O)N2CCCCC2)N(C)C(=O)[C@H](C2CCCCC2)N(C)C(=O)C2(CCCC2)NC(=O)[C@@H]2CCCN2C(=O)[C@H](CCc2ccc(C(F)(F)F)c(Cl)c2)NC(=O)CN(C)C(=O)[C@H](CC2CCCCC2)N(C)C(=O)CN(C)C(=O)CN(C)C1=O ([NMeT]I[Sar][Sar][NMeCha][Sar][hPhe(3-Cl-4-CF3)]P[Ac5c][NMeChg][NMeD]-Piperidide; lactam N-11),220 nM
0.26 nM,0.37 ×10⁻⁶ cm/s,< 2 nM,1.1 10^6/Ms,2.8 10^-4/s,CC[C@H](C)[C@@H]1NC(=O)[C@H](CCOC)N(C)C(=O)C[C@@H](C(=O)N2CCCCC2)N(C)C(=O)[C@H](C2CCCCC2)N(C)C(=O)C2(CCCC2)NC(=O)[C@@H]2CCCN2C(=O)[C@H](CCc2ccc(C(F)(F)F)c(Cl)c2)NC(=O)CN(C)C(=O)[C@H](CC2CCCCC2)N(C)C(=O)CN(C)C(=O)CN(C)C1=O ([NMehSer](Me)I[Sar][Sar][NMeCha][Sar][hPhe(3-Cl-4-CF3)]P[Ac5c][NMeChg][NMeD]-Piperidide; lactam N-11),74 nM
,0.87 ×10⁻⁶ cm/s,36 nM,,,CC[C@H](C)[C@@H]1NC(=O)[C@H](C)N(C)C(=O)C[C@@H](C(=O)n2cccc2)N(C)C(=O)[C@H](CC(C)C)N(C)C(=O)[C@H](Cc2ccccc2)N(C)C(=O)[C@H](Cc2ccccc2)NC(=O)[C@H](Cc2cccc(Cl)c2)NC(=O)CN(C)C(=O)[C@H](Cc2ccc(Cl)cc2)N(C)C(=O)CN(C)C(=O)CN(C)C1=O (cyclo(F[NMeF][NMeL][X2][NMeA]I[Sar][Sar][NMePhe(4-Cl)][Sar][Phe(3-Cl)])),> 20000 nM
